Calls of active or inactive are those of the source.
Legend:
[1] = C. albicans growth with fluconazole, confirmation, fluorescence, retest (AID 2467); assay type: functional, cell-based
[2] = target: Serine/threonine-protein phosphatase (Candida dubliniensis (strain CD36 / CBS 7987 / NCPF 3949 / NRRLY-17841) (Yeast), UniProt B9W6M3); assay: calcineurin pathway inhibitors in yeast reporter, dose response, S. cerevisiae, CDRE-lacZ, luminescence, secondary (AID 2388); assay type: functional, cell-based;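 note: yeast reporter cells carrying a calcineurin-responsive lacZ construct stimulated with calcium chloride; luminescent beta-galactosidase reporter signal in whole cells rather than isolated phosphatase activity; potency for inhibition where a drop in reporter signal means calcineurin blockade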
Serine/threonine-protein phosphatase, sequence (B9W6M3 whole entry): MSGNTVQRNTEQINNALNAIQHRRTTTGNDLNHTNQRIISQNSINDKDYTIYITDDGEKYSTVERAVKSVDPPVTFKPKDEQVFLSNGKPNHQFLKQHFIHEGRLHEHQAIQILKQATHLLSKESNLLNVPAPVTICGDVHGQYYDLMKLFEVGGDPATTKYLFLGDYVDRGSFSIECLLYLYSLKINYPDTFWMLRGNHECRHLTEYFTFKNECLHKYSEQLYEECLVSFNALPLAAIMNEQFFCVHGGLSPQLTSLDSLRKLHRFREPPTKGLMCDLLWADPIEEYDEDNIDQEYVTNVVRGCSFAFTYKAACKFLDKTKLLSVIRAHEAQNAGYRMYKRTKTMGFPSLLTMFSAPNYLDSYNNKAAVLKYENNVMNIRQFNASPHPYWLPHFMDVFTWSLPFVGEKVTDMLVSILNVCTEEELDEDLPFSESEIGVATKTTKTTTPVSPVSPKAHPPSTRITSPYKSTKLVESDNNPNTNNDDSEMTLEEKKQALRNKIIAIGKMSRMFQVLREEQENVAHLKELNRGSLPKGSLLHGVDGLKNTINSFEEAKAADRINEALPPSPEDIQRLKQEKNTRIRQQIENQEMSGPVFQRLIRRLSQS

[3] = NIH-3T3 fibroblast cytotoxicity, dose response, cytotoxicity control, cell-based, fluorescence, Alamar Blue, secondary assay (AID 2327); assay type: functional;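 note: NIH-3T3 mouse fibroblasts cultured with fluconazole at 8 µg/mL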
[4] = cytotoxicity in HPDE-C7 cells, cell-based, fluorescence, HTS (AID 430); assay type: functional; conditions: Homo sapiens
[5] = target: T1, Heat shock factor protein 1 (Mus musculus, UniProt P38532); assay: HSF1 potentiators in luciferase reporter cells, confirmation, cell-based, NIH3T3, luminescence, dose retest (AID 435004); assay type: functional;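 note: stress induced by proteasome inhibitor MG132 added 30 min after compound; luciferase reporter driven by HSF1 response element in NIH3T3 cells; actives raise luminescence as potentiators of the MG132 stress response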
T1 sequence (P38532 whole entry): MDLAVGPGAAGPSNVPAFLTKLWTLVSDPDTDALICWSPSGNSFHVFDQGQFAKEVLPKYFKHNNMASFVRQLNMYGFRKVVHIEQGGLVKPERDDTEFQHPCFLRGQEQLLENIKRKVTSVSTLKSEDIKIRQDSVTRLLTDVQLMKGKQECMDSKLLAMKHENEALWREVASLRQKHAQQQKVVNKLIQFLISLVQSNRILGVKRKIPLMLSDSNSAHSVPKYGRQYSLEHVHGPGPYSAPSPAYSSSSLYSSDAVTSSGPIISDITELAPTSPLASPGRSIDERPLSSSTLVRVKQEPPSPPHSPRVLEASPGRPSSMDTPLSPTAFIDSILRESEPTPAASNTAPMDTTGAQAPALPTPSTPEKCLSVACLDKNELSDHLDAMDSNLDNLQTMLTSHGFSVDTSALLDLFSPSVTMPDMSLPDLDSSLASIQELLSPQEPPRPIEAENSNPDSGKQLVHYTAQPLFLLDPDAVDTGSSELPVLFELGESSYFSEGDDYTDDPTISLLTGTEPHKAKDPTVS

HeLa = assay: Cytotoxicity counterscreen assay for transcriptional activators of heat shock protein 70 (Hsp70). [Related pubchem assays: 1203, 1252 ]; assay type: functional; conditions: Homo sapiens;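 note: cells exposed to compound for 16 hours before readout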
[6] = target: Induced myeloid leukemia cell differentiation protein Mcl-1 (Homo sapiens, UniProt Q07820); assay type: functional
Induced myeloid leukemia cell differentiation protein Mcl-1, sequence (Q07820 whole entry): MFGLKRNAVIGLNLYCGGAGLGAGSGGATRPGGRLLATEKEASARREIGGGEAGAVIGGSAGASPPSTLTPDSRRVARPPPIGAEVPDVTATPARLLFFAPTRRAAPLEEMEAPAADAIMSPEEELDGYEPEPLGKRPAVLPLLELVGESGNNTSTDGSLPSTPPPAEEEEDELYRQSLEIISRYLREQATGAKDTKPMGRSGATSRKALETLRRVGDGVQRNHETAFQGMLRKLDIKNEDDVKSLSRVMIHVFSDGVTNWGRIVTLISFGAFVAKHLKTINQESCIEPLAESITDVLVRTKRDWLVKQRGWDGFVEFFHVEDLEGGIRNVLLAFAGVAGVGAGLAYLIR

[7] = cytotoxicity in KRAS-transformed pancreatic duct cells, primary screen, cell-based, fluorescence, HTS (AID 431); assay type: functional; conditions: Homo sapiens;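 note: cell line used: HPDE-C7K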
[8] = target: ATP-dependent molecular chaperone HSP82 (Candida albicans (strain WO-1) (Yeast), UniProt C4YTQ8); assay: loss of DOC-induced GRE-beta-galactosidase reporter signal, dose response, Hsp90 inhibitor project, S. cerevisiae, luminescence (AID 2400); assay type: functional, cell-based;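 note: beta-galactosidase luminescence from glucocorticoid response element reporter as proxy for Hsp90 function; inhibitor potency where signal loss means Hsp90 inhibition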
ATP-dependent molecular chaperone HSP82, sequence (C4YTQ8 whole entry): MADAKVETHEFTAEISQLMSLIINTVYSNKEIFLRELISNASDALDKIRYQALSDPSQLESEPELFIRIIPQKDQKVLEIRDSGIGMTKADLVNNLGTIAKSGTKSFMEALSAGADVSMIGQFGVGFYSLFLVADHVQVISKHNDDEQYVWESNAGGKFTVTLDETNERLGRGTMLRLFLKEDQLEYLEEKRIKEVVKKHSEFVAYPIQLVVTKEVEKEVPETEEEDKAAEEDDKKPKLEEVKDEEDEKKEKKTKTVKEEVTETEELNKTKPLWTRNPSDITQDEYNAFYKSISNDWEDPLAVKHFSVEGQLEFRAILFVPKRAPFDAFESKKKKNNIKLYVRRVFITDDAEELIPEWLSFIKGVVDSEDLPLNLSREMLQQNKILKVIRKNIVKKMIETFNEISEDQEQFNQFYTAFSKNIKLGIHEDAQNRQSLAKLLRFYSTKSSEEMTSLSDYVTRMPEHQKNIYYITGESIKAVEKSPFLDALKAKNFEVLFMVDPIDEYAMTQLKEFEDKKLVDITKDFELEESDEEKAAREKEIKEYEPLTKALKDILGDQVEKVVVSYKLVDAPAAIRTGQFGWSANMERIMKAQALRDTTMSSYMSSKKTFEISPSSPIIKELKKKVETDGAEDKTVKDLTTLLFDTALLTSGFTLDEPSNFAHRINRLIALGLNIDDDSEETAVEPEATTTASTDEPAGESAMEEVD

[9] = Shn3 3'UTR reporter inhibitors, dose response, cell-based, Clone20 osteoblasts, firefly luciferase, cherry-picked (AID 624132); assay type: functional;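 note: firefly luciferase luminescence from reporter carrying the Shn3 3'UTR in osteoblasts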
[10] = target: T2, Sphingosine 1-phosphate receptor 4 (Homo sapiens, UniProt O95977); assay: Fluorescence dose response cell-based high throughput screening assay for antagonists of the Sphingosine 1-Phosphate Receptor 4 (S1P4). [Related pubchem assays: 1524 (Confirmation in triplicates.), 1510 (Primary screen.)]; assay type: functional
T2 sequence (O95977 whole entry): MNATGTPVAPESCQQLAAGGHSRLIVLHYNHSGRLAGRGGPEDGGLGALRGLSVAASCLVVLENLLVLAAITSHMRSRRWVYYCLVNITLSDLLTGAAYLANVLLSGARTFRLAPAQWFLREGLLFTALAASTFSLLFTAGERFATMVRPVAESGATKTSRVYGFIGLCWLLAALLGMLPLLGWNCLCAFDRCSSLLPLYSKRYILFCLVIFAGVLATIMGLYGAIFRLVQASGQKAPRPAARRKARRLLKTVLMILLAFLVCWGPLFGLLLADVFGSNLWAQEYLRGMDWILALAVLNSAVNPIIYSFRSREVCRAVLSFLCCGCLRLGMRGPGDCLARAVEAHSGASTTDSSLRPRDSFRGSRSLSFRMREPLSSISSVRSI

[11] = target: T3, Replicative DNA helicase DnaB (Mycobacterium tuberculosis, UniProt P9WMR3); assay: DnaB intein splicing inhibitors, dose response, biochemical, cell-free fluorescence (AID 449749); assay type: functional
T3 sequence (P9WMR3 whole entry): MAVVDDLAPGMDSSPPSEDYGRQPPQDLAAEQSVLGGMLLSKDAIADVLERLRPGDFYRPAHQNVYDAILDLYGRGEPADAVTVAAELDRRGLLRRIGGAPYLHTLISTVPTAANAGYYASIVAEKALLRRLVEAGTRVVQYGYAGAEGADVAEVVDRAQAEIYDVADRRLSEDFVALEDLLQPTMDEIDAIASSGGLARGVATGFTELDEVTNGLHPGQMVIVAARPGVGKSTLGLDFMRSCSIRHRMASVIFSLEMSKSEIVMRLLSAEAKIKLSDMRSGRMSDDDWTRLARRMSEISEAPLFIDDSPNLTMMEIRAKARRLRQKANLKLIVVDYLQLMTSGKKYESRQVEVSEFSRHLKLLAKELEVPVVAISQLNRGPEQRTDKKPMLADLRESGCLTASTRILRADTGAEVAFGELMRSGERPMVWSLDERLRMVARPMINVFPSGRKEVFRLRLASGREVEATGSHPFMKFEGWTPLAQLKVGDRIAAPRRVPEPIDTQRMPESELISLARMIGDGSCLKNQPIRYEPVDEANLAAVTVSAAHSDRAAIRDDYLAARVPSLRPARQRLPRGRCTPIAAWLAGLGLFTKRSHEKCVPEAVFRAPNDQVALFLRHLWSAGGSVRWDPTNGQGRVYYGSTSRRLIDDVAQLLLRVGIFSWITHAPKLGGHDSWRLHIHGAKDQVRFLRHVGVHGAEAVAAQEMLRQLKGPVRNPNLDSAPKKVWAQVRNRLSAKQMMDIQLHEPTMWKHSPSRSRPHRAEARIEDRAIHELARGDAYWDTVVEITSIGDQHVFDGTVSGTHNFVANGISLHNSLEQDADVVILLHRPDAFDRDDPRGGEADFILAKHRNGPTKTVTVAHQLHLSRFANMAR

[12] = target: Beta-2 adrenergic receptor (Homo sapiens, UniProt P07550); assay: beta2AR agonists driving receptor internalization, dose response, cell-based, FAP fluorogen, flow cytometry, cherry pick 1 (AID 588763); assay type: functional
Beta-2 adrenergic receptor, sequence (P07550 whole entry): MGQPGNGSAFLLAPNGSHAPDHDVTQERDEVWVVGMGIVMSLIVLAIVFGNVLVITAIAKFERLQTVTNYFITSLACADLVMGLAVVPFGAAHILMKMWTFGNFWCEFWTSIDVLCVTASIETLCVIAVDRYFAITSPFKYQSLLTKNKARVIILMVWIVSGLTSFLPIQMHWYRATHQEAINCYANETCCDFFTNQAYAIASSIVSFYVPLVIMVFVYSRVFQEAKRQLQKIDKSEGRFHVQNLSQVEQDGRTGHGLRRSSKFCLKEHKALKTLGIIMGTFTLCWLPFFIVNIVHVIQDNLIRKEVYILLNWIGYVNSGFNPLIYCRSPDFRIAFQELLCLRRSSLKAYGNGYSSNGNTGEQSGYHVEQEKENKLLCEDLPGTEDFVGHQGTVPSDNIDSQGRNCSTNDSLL

Protein RecA = target: T4, Protein RecA (Mycobacterium tuberculosis, UniProt P9WHJ3); assay: Fluorescence Cell-Free Homogeneous Dose Retest to Identify Inhibitors of RecA-Intein Splicing Activity. [Related pubchem assays (depositor defined):AID2097, AID2223, AID489010, AID492950]; assay type: functional
T4 sequence (P9WHJ3 whole entry): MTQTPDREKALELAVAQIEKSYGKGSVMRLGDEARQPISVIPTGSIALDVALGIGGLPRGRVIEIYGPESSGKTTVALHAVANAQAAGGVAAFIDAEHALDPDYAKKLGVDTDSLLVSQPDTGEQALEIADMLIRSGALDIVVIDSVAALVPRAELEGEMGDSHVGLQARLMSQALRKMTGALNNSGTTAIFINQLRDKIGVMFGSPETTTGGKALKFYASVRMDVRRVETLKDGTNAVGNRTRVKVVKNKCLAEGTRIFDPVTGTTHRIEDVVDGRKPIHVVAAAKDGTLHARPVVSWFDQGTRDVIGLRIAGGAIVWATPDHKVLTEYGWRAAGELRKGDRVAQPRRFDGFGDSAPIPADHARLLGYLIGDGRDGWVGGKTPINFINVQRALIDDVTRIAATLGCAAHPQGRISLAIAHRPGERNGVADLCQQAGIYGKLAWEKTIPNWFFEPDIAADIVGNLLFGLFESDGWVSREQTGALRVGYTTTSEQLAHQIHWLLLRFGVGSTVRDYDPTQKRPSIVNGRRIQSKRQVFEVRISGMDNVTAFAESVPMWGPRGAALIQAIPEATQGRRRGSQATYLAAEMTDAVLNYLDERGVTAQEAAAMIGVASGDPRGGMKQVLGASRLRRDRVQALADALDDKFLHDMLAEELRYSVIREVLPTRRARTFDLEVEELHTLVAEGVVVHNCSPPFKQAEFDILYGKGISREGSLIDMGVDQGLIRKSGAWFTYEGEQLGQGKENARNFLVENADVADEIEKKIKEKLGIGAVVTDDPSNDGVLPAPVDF

[13] = target: Sphingosine 1-phosphate receptor 1 (Homo sapiens, UniProt P21453); assay type: functional;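 note: Tango beta-arrestin reporter U2OS cells stimulated with S1P near its EC80; inhibitor potency meaning antagonism of receptor activation by the natural agonist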
Sphingosine 1-phosphate receptor 1, sequence (P21453 whole entry): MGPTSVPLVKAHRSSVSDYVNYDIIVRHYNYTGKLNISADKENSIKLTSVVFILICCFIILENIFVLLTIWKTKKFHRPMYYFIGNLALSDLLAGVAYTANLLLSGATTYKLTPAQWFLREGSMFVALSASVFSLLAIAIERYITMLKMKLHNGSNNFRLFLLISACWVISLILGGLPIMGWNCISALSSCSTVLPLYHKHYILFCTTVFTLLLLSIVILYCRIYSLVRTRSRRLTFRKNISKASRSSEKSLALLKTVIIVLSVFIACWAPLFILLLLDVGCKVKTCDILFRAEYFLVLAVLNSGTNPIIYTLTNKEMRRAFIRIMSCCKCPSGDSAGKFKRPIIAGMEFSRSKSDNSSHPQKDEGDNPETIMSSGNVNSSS

[14] = control 3'UTR Renilla luciferase suppression, dose response, counter-screen for Shn3 inhibitor project, cell-based, Clone20-Shn3RL, cherry-picked (AID 624133); assay type: functional
[15] = Luminescence Cell-Based Dose Response HTS to Identify Inhibitors of 5'UTR Stem-Loop Driven Prion Protein mRNA Translation in H4 Neuroglioblastoma Cells. [Related pubchem assays: 1827 (Project Summary), 1813 (Primary HTS)]; assay type: functional
[16] = target: 26S proteasome non-ATPase regulatory subunit 14 (Homo sapiens, UniProt O00487); assay: inhibition of proteasome subunit RPN11 – biochemical, fluorescence polarization, uHTS hits, confirmation (AID 602368); assay type: functional
26S proteasome non-ATPase regulatory subunit 14, sequence (O00487 whole entry): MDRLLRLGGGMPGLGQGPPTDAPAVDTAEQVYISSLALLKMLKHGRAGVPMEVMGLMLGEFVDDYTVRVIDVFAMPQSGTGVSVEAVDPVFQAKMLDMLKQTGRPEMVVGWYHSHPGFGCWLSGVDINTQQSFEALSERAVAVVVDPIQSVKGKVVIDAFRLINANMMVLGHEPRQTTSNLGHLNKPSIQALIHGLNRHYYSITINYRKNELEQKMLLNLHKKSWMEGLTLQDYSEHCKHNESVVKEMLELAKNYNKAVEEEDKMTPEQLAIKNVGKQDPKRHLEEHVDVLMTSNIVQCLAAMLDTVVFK

[17] = inhibitors of SNCA 5'UTR-driven reporter translation, confirmation, H4 neuroglioma cells, luminescence (AID 1988); assay type: functional, cell-based
Prothrombin = Prothrombin (Bos taurus, UniProt P00735); assay: thrombin inhibition, dose response, biochemical, fluorescence polarization, uHTS hits (AID 602369); assay type: functional
[18] = enhancers of respiration in Yfh1-depleted yeast, dose response, Friedreich's ataxia, plus single-dose screen (AID 1465); assay type: functional;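 note: yeast depleted of Yfh1p frataxin homolog grown on glycerol needing respiration; WST-1 tetrazolium dye reduction as measure of cellular dehydrogenase metabolic activity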
[19] = target: 72 kDa type IV collagenase (Homo sapiens, UniProt P08253); assay: Dose Response validation of uHTS RPN11 inhibitor hits using a MMP-2 Fluorescence assay.; assay type: functional
72 kDa type IV collagenase, sequence (P08253 whole entry): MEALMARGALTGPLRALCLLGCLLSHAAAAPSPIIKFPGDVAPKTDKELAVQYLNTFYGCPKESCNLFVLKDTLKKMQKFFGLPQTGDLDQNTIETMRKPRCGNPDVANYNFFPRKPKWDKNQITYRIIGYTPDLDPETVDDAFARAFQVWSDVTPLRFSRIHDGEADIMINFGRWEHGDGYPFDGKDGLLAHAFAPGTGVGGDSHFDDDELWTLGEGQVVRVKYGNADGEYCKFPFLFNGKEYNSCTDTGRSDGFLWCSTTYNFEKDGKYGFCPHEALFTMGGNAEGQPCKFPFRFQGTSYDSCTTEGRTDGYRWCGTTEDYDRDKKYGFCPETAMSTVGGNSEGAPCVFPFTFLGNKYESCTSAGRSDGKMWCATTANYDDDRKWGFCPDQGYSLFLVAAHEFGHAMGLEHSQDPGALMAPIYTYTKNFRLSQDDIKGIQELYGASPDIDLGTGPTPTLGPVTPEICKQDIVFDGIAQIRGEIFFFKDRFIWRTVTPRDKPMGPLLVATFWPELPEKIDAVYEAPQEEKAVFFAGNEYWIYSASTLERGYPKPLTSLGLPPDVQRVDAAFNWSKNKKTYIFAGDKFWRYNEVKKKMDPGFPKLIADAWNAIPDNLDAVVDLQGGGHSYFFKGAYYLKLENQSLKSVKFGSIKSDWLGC

[20] = target: T5, Microphthalmia-associated transcription factor (Homo sapiens, UniProt O75030); assay: TRPM1 promoter luciferase signal decrease, dose response, MITF inhibitor project, cell-based, SK-MEL-5, cherry-picked, set 3 (AID 493073); assay type: functional
T5 sequence (O75030 whole entry): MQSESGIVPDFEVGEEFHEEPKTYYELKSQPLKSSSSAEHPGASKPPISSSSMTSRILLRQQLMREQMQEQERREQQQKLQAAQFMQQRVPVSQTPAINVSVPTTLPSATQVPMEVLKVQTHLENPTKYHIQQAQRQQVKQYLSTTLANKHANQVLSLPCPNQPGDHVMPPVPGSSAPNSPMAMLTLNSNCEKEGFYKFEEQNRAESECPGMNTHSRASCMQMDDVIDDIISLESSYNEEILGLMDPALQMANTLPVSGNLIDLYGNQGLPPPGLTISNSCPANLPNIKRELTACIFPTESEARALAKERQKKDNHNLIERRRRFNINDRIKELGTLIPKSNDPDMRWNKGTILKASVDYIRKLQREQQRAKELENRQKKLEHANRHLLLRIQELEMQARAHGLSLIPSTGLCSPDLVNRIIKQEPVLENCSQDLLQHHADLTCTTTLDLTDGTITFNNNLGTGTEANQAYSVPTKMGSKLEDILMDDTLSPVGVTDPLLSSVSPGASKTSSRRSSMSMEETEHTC

[21] = inhibitors of firefly luciferase expression or activity, dose response, H4 neuroglioma cells, luminescence (AID 1990); assay type: functional, cell-based
Estrogen receptor = target: T6, Estrogen receptor (Homo sapiens, UniProt P03372); assay: potentiators of ERα–SRC-1 coactivator binding, dose response, biochemical, TR-FRET, ERα LBD (AID 737)
T6 sequence (P03372 whole entry): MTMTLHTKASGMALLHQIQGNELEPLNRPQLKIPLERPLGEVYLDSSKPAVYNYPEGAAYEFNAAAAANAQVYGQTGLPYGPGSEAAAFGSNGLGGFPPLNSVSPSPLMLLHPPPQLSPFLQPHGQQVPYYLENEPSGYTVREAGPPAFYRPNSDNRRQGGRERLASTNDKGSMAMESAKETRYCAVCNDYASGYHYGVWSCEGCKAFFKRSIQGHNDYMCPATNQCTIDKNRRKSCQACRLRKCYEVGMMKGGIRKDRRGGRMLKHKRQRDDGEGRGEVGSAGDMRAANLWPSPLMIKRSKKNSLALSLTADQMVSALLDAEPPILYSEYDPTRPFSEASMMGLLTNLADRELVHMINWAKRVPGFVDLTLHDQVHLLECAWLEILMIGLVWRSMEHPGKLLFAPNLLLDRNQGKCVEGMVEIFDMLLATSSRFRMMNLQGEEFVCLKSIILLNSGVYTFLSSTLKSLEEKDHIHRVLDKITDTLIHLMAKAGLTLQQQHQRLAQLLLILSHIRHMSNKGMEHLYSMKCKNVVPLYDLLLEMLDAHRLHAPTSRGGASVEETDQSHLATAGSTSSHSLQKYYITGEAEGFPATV

[22] = target: ADP-ribosylation factor GTPase-activating protein 1 (Rattus norvegicus, UniProt Q62848); assay: Fluorescence polarization-based biochemical high throughput dose response screening assay to identify inhibitors of ADP-ribosylation factor GTPase activating protein 1 (ARFGAP1).; assay type: functional
ADP-ribosylation factor GTPase-activating protein 1, sequence (Q62848 whole entry): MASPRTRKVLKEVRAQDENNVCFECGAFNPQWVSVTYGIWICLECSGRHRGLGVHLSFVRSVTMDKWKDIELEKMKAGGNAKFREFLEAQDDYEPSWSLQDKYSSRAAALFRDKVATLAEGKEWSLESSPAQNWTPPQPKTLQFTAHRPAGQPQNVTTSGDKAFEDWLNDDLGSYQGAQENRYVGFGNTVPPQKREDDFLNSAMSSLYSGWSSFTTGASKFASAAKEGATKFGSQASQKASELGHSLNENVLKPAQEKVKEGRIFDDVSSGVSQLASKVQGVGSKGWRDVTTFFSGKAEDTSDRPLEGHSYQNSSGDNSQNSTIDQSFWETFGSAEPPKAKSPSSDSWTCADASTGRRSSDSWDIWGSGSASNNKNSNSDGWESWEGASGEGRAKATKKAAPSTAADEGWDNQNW

Compound: COc1ccc(C(c2c(O)ccc3ccccc23)N2CCOCC2)c(OC)c1 (stereo unspecified)
- EC50 [1]: 1.82 µM (active)
- EC50 [2]: > 180 µM (inactive)
- EC50 [3]: 11.6 µM (active)
- EC50 [4]: 4.07 µM (active)
- EC50 [5]: 12.5 µM (active)
- CC50 (HeLa): 44.3 µM (not active)
- IC50 [6]: 1.62 µM (active)
- EC50 [7]: 3.89 µM (active)
- EC50 [8]: > 160 µM (inactive)

Compound: CC(C)c1nnc(NC(=O)CCS(=O)(=O)c2nc(-c3cccs3)cc(C(F)(F)F)n2)s1
- AC50 [9]: 3.02 µM (active)
- IC50 [10]: 1.1 µM (active)
- AC50 [11]: > 120 µM (inactive)
- EC50 [12]: 33.7 µM (inactive)
- EC50 (Protein RecA): 30.4 µM (inconclusive)
- IC50 [13]: 13.5 µM (not active)
- AC50 [14]: 6.01 µM (active)

Compound: CCN(CCO)c1ccc(N=Nc2cc(C)[nH]n2)cc1
- EC50 [15]: 4.08 µM (active)
- IC50 [16]: 53 µM (active)
- EC50 [17]: 4.94 µM (active)
- IC50 (Prothrombin): 61.2 µM (active)
- EC50 [18]: > 100 µM (active)
- IC50 [19]: > 100 µM (inactive)
- AC50 [20]: 3.6 µM (active)
- EC50 [21]: 5.43 µM (active)

Compound: COc1ccc(CCn2c(SCC(=O)Nc3cc(C)on3)nc3ccsc3c2=O)cc1OC
- EC50 (Estrogen receptor): 12.8 µM (active)
- IC50 [22]: 44 µM (inactive)
